Measurements: patent publication US8828907B2, “Active ingredient combinations having insecticidal and acaricidal properties” (Bayer CropScience AG, priority 2009, dated 2014)

Experiments:
Format in all cases: in vivo
Conditions in all cases: single active compound
[1] = test system: greenhouse red spider mite (Tetranychus urticae); assay: Tetranychus urticae test (OP-resistant/spray treatment)
Experimental: (§1) Solvents: 78 parts by weight of acetone • • 1.5 parts by weight of dimethylformamide
(§2) Emulsifier: 0.5 part by weight of alkylaryl polyglycol ether
(§3) To produce a suitable preparation of active compound, 1 part by weight of active compound is mixed with the stated amount of solvent and emulsifier, and the concentrate is diluted with emulsifier-containing water to the desired concentration.
Discs of bean leaves (Phaseolus vulgaris) which are infested by all stages of the greenhouse red spider mite (Tetranychus urticae) are sprayed with an active compound preparation of the desired concentration.
After the desired period of time, the effect in % is determined. 100% means that all of the spider mites have been killed; 0% means that none of the spider mites have been killed.

[2] = test system: green peach aphid (Myzus persicae); assay: Myzus persicae test (spray on infested cabbage leaves)
Experimental: as §1, §2, §3
Cabbage leaves (Brassica oleracea) which are heavily infested by the green peach aphid (Myzus persicae) are treated by spraying with the active compound preparation of the desired concentration.
After the desired period of time, the kill in % is determined. 100% means that all of the aphids have been killed; 0% means that none of the aphids have been killed. The kill rates determined are entered into Colby's formula (see above).

[3] = test system: larvae of the armyworm (Spodoptera frugiperda); assay: Spodoptera frugiperda larvae test (sprayed cabbage leaves)
Experimental: as §1, §2, §3
Cabbage leaves (Brassica oleracea) are treated by being sprayed with the preparation of active compound of the desired concentration and are populated with larvae of the armyworm (Spodoptera frugiperda) while the leaves are still moist.
After the desired period of time, the kill in % is determined. 100% means that all caterpillars have been killed; 0% means that none of the caterpillars have been killed. The kill rates determined are entered into Colby's formula (see above).

[4] = test system: larvae of the mustard beetle (Phaedon cochleariae); assay: Phaedon cochleariae larvae test (sprayed cabbage leaves)
Experimental: as §1, §2, §3
Cabbage leaves (Brassica oleracea) are treated by spraying with the active ingredient formulation of the desired concentration and populated with larvae of the mustard beetle (Phaedon cochleariae) while the leaves are still moist.
After the desired period of time, the kill in % is determined. 100% means that all beetle larvae have been killed; 0% means that none of the beetle larvae have been killed. The kill rates determined are entered into Colby's formula (see above).

O=C1C=C(N(CCF)Cc2ccc(Cl)nc2)CO1 [compound (I-4), 4-{[(6-chloropyrid-3-yl)methyl](2-fluoroethyl)amino}furan-2(5H)-one]
Kill in % after 6d ([1]; 20 g/ha): 0%
Kill in % after 1d ([2]; 4 g/ha): 30%
Kill in % after 2d ([3]; 0.16 g/ha): 0%
Kill in % after 2d ([3]; 0.8 g/ha): 0%
Kill in % after 2d ([3]; 20 g/ha): 0%
Kill in % after 2d ([4]; 4 g/ha): 0%
Kill in % after 2d ([4]; 100 g/ha): 0%

O=C1C=C(N(Cc2ccc(Cl)nc2)CC(F)F)CO1 [compound (I-5), 4-{[(6-chloropyrid-3-yl)methyl](2,2-difluoroethyl)amino}furan-2(5H)-one]
Kill in % after 6d ([1]; 20 g/ha): 0%
Kill in % after 6d ([1]; 100 g/ha): 0%
Kill in % after 2d ([3]; 0.8 g/ha): 0%
Kill in % after 2d ([3]; 4 g/ha): 0%
Kill in % after 2d ([4]; 4 g/ha): 0%
Kill in % after 2d ([4]; 100 g/ha): 0%

CN(Cc1cnc(Cl)c(F)c1)C1=CC(=O)OC1 [compound (I-6), 4-{[(6-chloro-5-fluorpyrid-3-yl)methyl](methyl)amino}furan-2(5H)-one]
Kill in % after 1d ([2]; 0.8 g/ha): 70%
Kill in % after 2d ([3]; 0.8 g/ha): 0%
Kill in % after 2d ([3]; 20 g/ha): 0%
Kill in % after 2d ([4]; 100 g/ha): 0%

O=C(NC(=O)c1c(F)cccc1F)Nc1ccc(Oc2ccc(C(F)(F)F)cc2Cl)cc1F [flufenoxuron, reference compound]
Kill in % after 6d ([1]; 20 g/ha): 0%
Kill in % after 1d ([2]; 0.8 g/ha): 0%
Kill in % after 1d ([2]; 4 g/ha): 0%
Kill in % after 2d ([3]; 0.8 g/ha): 33%
Kill in % after 2d ([4]; 100 g/ha): 0%

O=C(NC(=O)c1c(F)cccc1F)Nc1cc(Cl)c(OC(F)(F)C(F)C(F)(F)F)cc1Cl (stereo not drawn) [lufenuron, reference compound]
Kill in % after 1d ([2]; 4 g/ha): 0%
Kill in % after 2d ([4]; 100 g/ha): 17%

COc1cccc(C(=O)NN(C(=O)c2cc(C)cc(C)c2)C(C)(C)C)c1C [methoxyfenozide, reference compound]
Kill in % after 6d ([1]; 100 g/ha): 0%
Kill in % after 1d ([2]; 4 g/ha): 0%
Kill in % after 2d ([3]; 4 g/ha): 33%
Kill in % after 2d ([3]; 20 g/ha): 83%

O=C(NC(=O)c1ccccc1Cl)Nc1ccc(OC(F)(F)F)cc1 [triflumuron, reference compound]
Kill in % after 1d ([2]; 0.8 g/ha): 0%
Kill in % after 1d ([2]; 4 g/ha): 0%
Kill in % after 2d ([3]; 0.16 g/ha): 50%
Kill in % after 2d ([3]; 0.8 g/ha): 33%
Kill in % after 2d ([4]; 4 g/ha): 0%
